The values that follow are results of earlier work, collected in patent publication US20040224037A1, “Devastating treatment against hiv/aids with capsaicin” (priority 2003, published 2004).

Ends that are not written are not given here.

For series [1], the system named is guinea pig peritoneal macrophages.

For “arg-pro-lys-pro-gln-gln-phe-phe-gly-leu-met-nh2 (RPKPQQFFGLM-NH2; UniProt P20366 58-68, looked up) [Substance p (sp), undecapeptide neuropeptide]”, the phagocytosis entry with macrophages of mice and in the series on human leucocytes was “stimulates phagocytosis” throughout. For the same substance, the “macrophage activation, liberation of reactive oxygen species” value in series [1] is “activated such macrophages”.
